According to patent US20220324958A1, “ANTI-INFLAMMATORY PEPTIDES, PHARMACEUTICAL COMPOSITION CONTAINING SUCH PEPTIDES, AND USES THEREOF” (INSTITUTO BUTANTAN, priority 2019, published 2022):
“Also recorded” adds a separate entry of the source.

Experiments:
[1] = tested on: neurons obtained from SHSY5Y cells; experiment: Anti-nociceptive/anti-inflammatory model, neurons stimulated with glycated collagen (GC): substance P and β-endorphin in supernatant; type: cell-based
Protocol: ANOVA and Dunnet * p<0.05; ** p<0.01 compared to glycated collagen (GC);
ANOVA and Dunnet * p<0.05 ** p<0.01, *** p<0.001 compared with GC;
The differentiation process consists of 6 stages distributed over 7 days. On the first day of the differentiation protocol (day 0), cells were seeded in collagen-coated plates. On days 1, 3, and 4 the culture medium was removed, and the differentiation medium containing 2% fetal bovine serum (FBS) and retinoic acid (RA) 10 μM) was added. On day 5, the medium was removed and the culture was incubated with culture medium and brain-derived neurotrophic factor (BDNF) (50 ng/mL). On day 7 of the differentiation process, differentiated neurons are fully ready for use (Agholme et al., 2010, with some modifications).
7×10^3 neurons/well were incubated with 10 μM of morphine (inhibitory response control) or peptides (200 nM and 500 nM) 3 hours before or 3 hours after incubation with IL-1β (10 ng/mL) or glycated collagen (GC) (100 μg/mL) (both positive controls for the release of substance P). After 24 hours of incubation, the cell viability assay and the detection of substance P and β-endorphin in the supernatant were performed. Multiplex with magnetic spheres (MILLIPLEX® MAP Magnetic Bead Panel)
ANOVA and Dunnet * p<0.05; ** p<0.01 compared to GC.
ANOVA and Dunnet * p<0.05 ** p<0.01, *** p<0.001 compared to GC.

[2] = tested on: osteoclast precursors (PBMNC); experiment: Osteoclast differentiation model, TRAP+ cell count; type: cell-based, human; conditions: peptide 200 nM added on day four to osteoclast precursor culture, 15 days; compared to positive control (CTRL)
Protocol: A. Positive differentiation controls. B. Influence of synthetic peptides (200 nM) on osteoclast differentiation. C. Negative differentiation control. αMEM—Minimum Essential Medium Eagle Alpha Modification; FBS—fetal bovine serum; TRANCE—Tumor Necrosis Factor (TNF)-related Activation-induced Cytokine; M-CSF—Macrophage Colony-Stimulating Factor; TGF-β1—Transforming growth factor beta-1.
The present invention includes the culture of monocytic cells of human leukemia (THP-1), osteoclast, primary human blood-derived mononuclear cells (PBMNC), and human chondrocytes (NHAC-kn).
Negative differentiation controls. B. Influence of synthetic peptides (200 nM) on osteoclast differentiation.
PBMNC were isolated and, immediately after, plating inductive culture medium (composed of Alpha-MEM+10% FBS+MCSF [25 ng/mL]+RANKL [50 ng/mL]+TGF-beta 1 [5 ng/mL]+Dexamethasone [1 μM]) was added for 15 days. On day four, the L. obliqua venom at a concentration of […] or toxins at a concentration of 200 nM, each individually, was added to the osteoclast precursor culture and these culture conditions were maintained until the end of the differentiation. Then, the cells were fixed and stained with tartrate-resistant acid phosphatase (TRAP).

[3] = tested on: human chondrocytes (NHAC-kn); experiment: Pro-inflammatory model of chondrocytes treated with IL-1β, cytokine release (Multiplex); type: cell-based; conditions: chondrocytes treated with IL-1β (1 ng/mL)
Protocol: Values were obtained from each analyte in pg/mL from treatment with the peptides in the presence of IL-1β (1 ng/mL). The data are presented as the mean±MSE (* p<0.05 when compared to the control with IL-1β, test t, n=3).
(B) Chondrocytes were pretreated for 1 hour with IL-1β (1 ng/mL) before the addition of peptides (200 nM, 500 nM, and 1.25 μM) and an additional incubation of 24 hours before collecting the supernatants.
The primary human chondrocytes used in this assay were purchased from Lonza: Normal Human Articular Primary chondrocytes (NHAC-Kn, #CC-2550, Lot 8F3336). Chondrocyte cell culture was performed in bottles (Sarstedt T175 and T75). The cells were cultivated in DMEM culture medium (Sigma) supplemented with 10% fetal bovine serum (FBS) (Sigma), incubated in an oven at 37° C. and 5% CO2, and cultures were used in the sixth passage. The culture medium was changed every two days until the culture reached 80% confluence.
The identification and quantitative analysis of the cytokines present in the peptide treatment supernatant were performed using the Luminex xMAP Milliplex MAP Human Cytokine/Chemokine Magnetic Bead Panel Catalog #HCYTOMAG-60K technology, according to the manufacturer's instructions.
Values were obtained from each analyte in pg/mL from treatment with the peptides in the presence of IL-1β (1 ng/mL). The data are presented as the mean±MSE (*p<0.05 when compared to the control with IL-1β, test t, n=3).

[4] = tested on: THP-1 cells differentiated into macrophages; experiment: LPS-induced cytokine production in THP-1-derived macrophages (Multiplex); type: cell-based, human
Protocol: THP-1 cells differentiated into macrophages were induced with LPS (10 ng/mL) and, one hour later, treated with synthetic peptides at a concentration of 200 nM. Dexamethasone (10 μM), an inflammatory inhibitor, was used as a control. After 24 hours, the culture medium was collected to measure the IL-1β (A), IL-6 (B), TNF-α (C), and IL-10 cytokines using a Multiplex kit. * p<0.05 vs. LPS; ** p<0.01 vs. LPS; *** p<0.005 vs. LPS;
THP-1 cells differentiated into macrophages were induced with LPS (10 ng/mL) and, one hour later, treated with L4 or D3 peptide (0.05 μM, 0.2 μM, 1 μM, and 2 μM). After 24 hours, the culture medium was collected and TNF-alpha, IL-6, IL-23, and IL-8 were measured by Multiplex. (A) L4 peptide. (B) D3 peptide;
Macrophages were obtained from the differentiation of monocytes THP-1. Briefly, 1×10^7 cells were treated in the RPMI medium with 25 nM PMA for 48 hours followed by 24 hours of rest in medium without PMA. Subsequently, the cells were released and plated for the respective treatments.
The kit is based on Luminex® xMAP® technology that allows the simultaneous analysis of various cytokines. The technique is based on marked magnetic fluorescent spheres, known as MagPlex®-C microspheres. These microspheres are covered with capture antibodies specific for IL-6 […], and specifically capture the analyte in the supernatant. Each microsphere was individually identified and the results were analyzed using Luminex® Xponent® 4.2 acquisition software.
THP-1 cells differentiated into macrophages were induced with LPS (10 ng/mL) and, one hour later, treated with synthetic peptides, […] (inflammation inhibitor, 10 μM). After 24 hours, the culture medium was collected and IL-1β (A), IL-6 (B), TNF-α (C), and IL-10 were measured by Multiplex. * p<0.05 vs. LPS; ** p<0.01 vs. LPS; *** p<0.005 vs. LPS.
THP-1 cells differentiated into macrophages were induced with LPS (10 ng/mL) and, one hour after, treated with L4 (0.05 μM, 0.2 μM, 1 μM, and 2 μM). After 24 hours, the culture medium was collected and TNF-α, IL-6, IL-23, and IL-8 were measured by Multiplex. (A) L4 peptide. (B) D3 peptide.

[5] = peptide 200 nM incubated 3 hours after GC (100 μg/mL)
[6] = LPS 10 ng/mL, peptide 200 nM one hour later, 24 hours, vs group treated only with LPS
[7] = dose-response 0.05, 0.2, 1 and 2 μM, LPS 10 ng/mL, 24 hours

EEQTHFHFESPKLISFKVQDYWILNDIMKKNLTGISLKSEEEDADSGEID (Designated peptide based on the motif of a group of proteins called hemoline from lepidoptera acting as an anti-inflammatory molecule) [Cambly, peptide derived from the Amblyomin-X molecule with characteristics of CPP (cell-penetrating peptides)]
production of Substance P [1, 5]: significantly inhibited
production of β-endorphin [1, 5]: increased
production of Substance P ([1]; peptide (200 nM and 500 nM) incubated 3 hours before GC (100 μg/mL)): significantly decrease; also recorded: inhibited
production of β-endorphin ([1]; peptide incubated 3 hours before GC (100 μg/mL)): did not affect
number of TRAP+ cells [2]: reduced

IWTKDGKAIT (Designated peptide based on the motif of a group of proteins called hemoline from lepidoptera acting as an anti-inflammatory molecule) [L1]
anti-inflammatory activity (release of G-CSF, GM-CSF, IL-6, IL-8, MCP-1, TNF-α) [3]: anti-inflammatory activity

NYFKNGKDVN (Designated peptide based on the motif of a group of proteins called hemoline from lepidoptera acting as an anti-inflammatory molecule) [L2]
anti-inflammatory activity (release of G-CSF, GM-CSF, IL-6, IL-8, MCP-1, TNF-α) [3]: anti-inflammatory activity
number of TRAP+ cells [2]: no statistically significant difference

QPEISWTRNK (Designated peptide based on the motif of a group of proteins called hemoline from lepidoptera acting as an anti-inflammatory molecule) [L6]
anti-inflammatory activity (release of G-CSF, GM-CSF, IL-6, IL-8, MCP-1, TNF-α) [3]: anti-inflammatory activity

RWLKDGQAFH (Designated peptide based on the motif of a group of proteins called hemoline from lepidoptera acting as an anti-inflammatory molecule) [L8]
anti-inflammatory activity (release of G-CSF, GM-CSF, IL-6, IL-8, MCP-1, TNF-α) [3]: anti-inflammatory activity

SWLKNGREFR (Designated peptide based on the motif of a group of proteins called hemoline from lepidoptera acting as an anti-inflammatory molecule) [L5]
anti-inflammatory activity (release of G-CSF, GM-CSF, IL-6, IL-8, MCP-1, TNF-α) [3]: anti-inflammatory activity

TWNKKGKKVN (Designated peptide based on the motif of a group of proteins called hemoline from lepidoptera acting as an anti-inflammatory molecule) [L4]
anti-inflammatory activity (release of G-CSF, GM-CSF, IL-6, IL-8, MCP-1, TNF-α) [3]: anti-inflammatory activity
levels of IL-10 (anti-inflammatory cytokine) ([4]; LPS 10 ng/mL, peptide 200 nM one hour later, 24 hours): increase
levels of IL-1β [4, 6]: significantly reducing
levels of IL-6 [4, 6]: significantly reducing
levels of TNF-a [4, 6]: significantly reducing
dose achieving the greatest inhibition of IL-6 release [4, 7]: 200 nM
dose achieving the greatest inhibition of IL-8 release [4, 7]: 200 nM
most effective dose concerning IL-23 release [4, 7]: 1 µM
most effective dose concerning TNF-α release [4, 7]: 1 µM
production of inflammatory cytokines in response to LPS (dose-dependent) ([4]; dose-response 0.05-2 μM, TNF-α, IL-6, IL-23, IL-8): reduced

VWRKNGKKVS (Designated peptide based on the motif of a group of proteins called hemoline from lepidoptera acting as an anti-inflammatory molecule) [L3]
anti-inflammatory activity (release of G-CSF, GM-CSF, IL-6, IL-8, MCP-1, TNF-α) [3]: anti-inflammatory activity

YSIVAGCL (Designated peptide based on the motif of a group of proteins called hemoline from lepidoptera acting as an anti-inflammatory molecule) [E8]
anti-inflammatory activity (release of G-CSF, GM-CSF, IL-6, IL-8, MCP-1, TNF-α) [3]: anti-inflammatory activity
production of Substance P [1, 5]: significantly inhibited
production of β-endorphin [1, 5]: increased

B1: YAIGYSSKDYKGGGGEEQTHFHFESPKLISFKVQDYWILNDIMKKNLTGISLKSEEEDADSGEID (peptide)
chain: YAIGYSSKDYKGGGGEEQTHFHFESPKLISFKVQDYWILNDIMKKNLTGISLKSEEEDADSGEID
modifications: Designated peptide based on the motif of a group of proteins called hemoline from lepidoptera acting as an anti-inflammatory molecule
production of Substance P [1, 5]: significantly inhibited
production of β-endorphin [1, 5]: increased

B2: YSIVAGSLGGGGEEQTHFHFESPKLISFKVQDYWILNDIMKKNLTGISLKSEEEDADSGEID (peptide)
chain: YSIVAGSLGGGGEEQTHFHFESPKLISFKVQDYWILNDIMKKNLTGISLKSEEEDADSGEID
modifications: Designated peptide based on the motif of a group of proteins called hemoline from lepidoptera acting as an anti-inflammatory molecule
number of TRAP+ cells [2]: significant decrease; also recorded: reduced
